{"source": "patent US4280953A", "about": "“Glycosylated analogs of somatostatin” (The Salk Institute for Biological Studies, priority 1979, dated 1981)", "origin": "cited, not measured here", "system": "secretion of insulin, glucogon pancreatic polypeptide and gastrin", "conditions": "human subjects, subcutaneous administration", "note": "Non-standard residues stand in square brackets, D forms with d.", "data": [{"substance": "H-CFF[dW]KTFC-OH (cysteine pairing not given here)", "values": [{"measurement": "inhibitory activity on the secretion of insulin, glucogon pancreatic polypeptide and gastrin", "result": "prolonged inhibitory activity"}]}]}
